Source: paper PMC10879502, “Linking ATP and allosteric sites to achieve superadditive binding with bivalent EGFR kinase inhibitors” (Communications Chemistry, 2024)
Values belong to the molecule of their own block, whether it stands above or below them.

Assays:
[1] = target: T1, WT EGFR kinase domain (Homo sapiens, UniProt P00533); test: HTRF KinEASE-TK kinase activity assay; assay type: biochemical; settings: enzyme 10 nM, ATP 100 µM; read-out: Biochemical EGFR IC50, WT
T1 construct: The EGFR kinase domain (residues 696–1022) was cloned into pTriEx; 6xHis (N, cleaved yes); GST (N, cleaved yes); made in house; host or cells: SF9 insect cells, baculovirus

[2] = target: ALK(L1196M) (Homo sapiens, UniProt Q9UM73, L1196M); test: KINOMEscan; assay type: binding; settings: 1 μM
[3] = target: AMPK-alpha1 (Homo sapiens, UniProt Q13131); test: KINOMEscan; assay type: binding; settings: 1 μM
[4] = target: ARK5 (Homo sapiens, UniProt O60285); test: KINOMEscan; assay type: binding; settings: 1 μM
[5] = target: CDK11 (Homo sapiens, UniProt Q9BWU1); test: KINOMEscan; assay type: binding; settings: 1 μM
[6] = target: CDK4-cyclinD3 (Homo sapiens, UniProt P11802); test: KINOMEscan; assay type: binding; settings: 1 μM
[7] = target: CDKL2 (Homo sapiens, UniProt Q92772); test: KINOMEscan; assay type: binding; settings: 1 μM
[8] = target: T2, CTK (Homo sapiens, UniProt P42679); test: KINOMEscan; assay type: binding; settings: 1 μM
T2 construct: purchased Eurofins DiscoverX Corporation

[9] = target: T3, DAPK2 (Homo sapiens, UniProt Q9UIK4); test: KINOMEscan; assay type: binding; settings: 1 μM
T3 construct: purchased Eurofins DiscoverX Corporation

[10] = target: T4, DCAMKL2 (Homo sapiens, UniProt Q8N568); test: KINOMEscan; assay type: binding; settings: 1 μM
T4 construct: purchased Eurofins DiscoverX Corporation

[11] = target: EGFR(L858R) (Homo sapiens, UniProt P00533, L858R); test: KINOMEscan; assay type: binding; settings: 1 μM
[12] = target: EPHA3 (Homo sapiens, UniProt P29320); test: KINOMEscan; assay type: binding; settings: 1 μM
[13] = target: EPHB2 (Homo sapiens, UniProt P29323); test: KINOMEscan; assay type: binding; settings: 1 μM
[14] = target: EPHB3 (Homo sapiens, UniProt P54753); test: KINOMEscan; assay type: binding; settings: 1 μM
[15] = target: ERK3 (Homo sapiens, UniProt Q16659); test: KINOMEscan; assay type: binding; settings: 1 μM
[16] = target: ERN1 (Homo sapiens, UniProt O75460); test: KINOMEscan; assay type: binding; settings: 1 μM
[17] = target: FGR (Homo sapiens, UniProt P09769); test: KINOMEscan; assay type: binding; settings: 1 μM
[18] = target: FLT1 (Homo sapiens, UniProt P17948); test: KINOMEscan; assay type: binding; settings: 1 μM
[19] = target: T5, FLT3(K663Q) (Homo sapiens, UniProt P36888, K663Q); test: KINOMEscan; assay type: binding; settings: 1 μM
T5 construct: purchased Eurofins DiscoverX Corporation

[20] = target: T6, GRK7 (Homo sapiens, UniProt Q8WTQ7); test: KINOMEscan; assay type: binding; settings: 1 μM
T6 construct: purchased Eurofins DiscoverX Corporation

[21] = target: T7, IGF1R (Homo sapiens, UniProt P08069); test: KINOMEscan; assay type: binding; settings: 1 μM
T7 construct: purchased Eurofins DiscoverX (KINOMEscan)

[22] = target: T8, INSR (Homo sapiens, UniProt P06213); test: KINOMEscan; assay type: binding; settings: 1 μM
T8 construct: purchased Eurofins DiscoverX (KINOMEscan)

[23] = target: T9, IRAK1 (Homo sapiens, UniProt P51617); test: KINOMEscan; assay type: binding; settings: 1 μM
T9 construct: purchased Eurofins DiscoverX (KINOMEscan)

[24] = target: T10, ITK (Homo sapiens, UniProt Q08881); test: KINOMEscan; assay type: binding; settings: 1 μM
T10 construct: purchased Eurofins DiscoverX (KINOMEscan)

[25] = target: T11, LRRK2 (Homo sapiens, UniProt Q5S007); test: KINOMEscan; assay type: binding; settings: 1 μM
T11 construct: purchased Eurofins DiscoverX Corporation

[26] = target: T12, MAP3K4 (Homo sapiens, UniProt Q9Y6R4); test: KINOMEscan; assay type: binding; settings: 1 μM
T12 construct: purchased Eurofins DiscoverX Corporation

[27] = target: T13, MAP4K5 (Homo sapiens, UniProt Q9Y4K4); test: KINOMEscan; assay type: binding; settings: 1 μM
T13 construct: purchased Eurofins DiscoverX Corporation

[28] = target: T14, MKK7 (Homo sapiens, UniProt O14733); test: KINOMEscan; assay type: binding; settings: 1 μM
T14 construct: purchased Eurofins DiscoverX Corporation

[29] = target: T15, MKNK1 (Homo sapiens, UniProt Q9BUB5); test: KINOMEscan; assay type: binding; settings: 1 μM
T15 construct: purchased Eurofins DiscoverX Corporation

[30] = target: T16, MLK2 (Homo sapiens, UniProt Q02779); test: KINOMEscan; assay type: binding; settings: 1 μM
T16 construct: purchased Eurofins DiscoverX Corporation

[31] = target: T17, MYO3A (Homo sapiens, UniProt Q8NEV4); test: KINOMEscan; assay type: binding; settings: 1 μM
T17 construct: purchased Eurofins DiscoverX Corporation

[32] = target: PAK1 (Homo sapiens, UniProt Q13153); test: KINOMEscan; assay type: binding; settings: 1 μM
[33] = target: PAK3 (Homo sapiens, UniProt O75914); test: KINOMEscan; assay type: binding; settings: 1 μM
[34] = target: PIK3CB (Homo sapiens, UniProt P42338); test: KINOMEscan; assay type: binding; settings: 1 μM
[35] = target: PLK3 (Homo sapiens, UniProt Q9H4B4); test: KINOMEscan; assay type: binding; settings: 1 μM
[36] = target: PRKCD (Homo sapiens, UniProt Q05655); test: KINOMEscan; assay type: binding; settings: 1 μM
[37] = target: PRKX (Homo sapiens, UniProt P51817); test: KINOMEscan; assay type: binding; settings: 1 μM
[38] = target: ROCK1 (Homo sapiens, UniProt Q13464); test: KINOMEscan; assay type: binding; settings: 1 μM
[39] = target: ROS1 (Homo sapiens, UniProt P08922); test: KINOMEscan; assay type: binding; settings: 1 μM
[40] = target: SRPK3 (Homo sapiens, UniProt Q9UPE1); test: KINOMEscan; assay type: binding; settings: 1 μM
[41] = target: WNK2 (Homo sapiens, UniProt Q9Y3S1); test: KINOMEscan; assay type: binding; settings: 1 μM
[42] = target: ZAK (Homo sapiens, UniProt Q9NYL2); test: KINOMEscan; assay type: binding; settings: 1 μM

FGR, sequence (P09769 whole entry): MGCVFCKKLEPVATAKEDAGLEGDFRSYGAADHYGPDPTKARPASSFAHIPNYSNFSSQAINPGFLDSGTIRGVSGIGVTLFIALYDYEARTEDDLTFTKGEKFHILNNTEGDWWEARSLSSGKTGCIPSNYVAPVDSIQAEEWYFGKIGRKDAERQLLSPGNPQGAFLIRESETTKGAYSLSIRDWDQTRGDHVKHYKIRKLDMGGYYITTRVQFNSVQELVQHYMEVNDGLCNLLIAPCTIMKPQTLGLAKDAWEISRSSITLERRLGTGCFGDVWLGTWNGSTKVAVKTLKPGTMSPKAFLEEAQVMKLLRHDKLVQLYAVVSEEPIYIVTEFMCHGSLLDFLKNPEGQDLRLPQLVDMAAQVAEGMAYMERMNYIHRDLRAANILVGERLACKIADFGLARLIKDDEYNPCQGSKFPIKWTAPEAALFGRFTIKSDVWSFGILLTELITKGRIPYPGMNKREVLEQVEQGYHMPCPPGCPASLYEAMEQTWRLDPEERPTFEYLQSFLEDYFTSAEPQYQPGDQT
AMPK-alpha1, sequence (Q13131 whole entry): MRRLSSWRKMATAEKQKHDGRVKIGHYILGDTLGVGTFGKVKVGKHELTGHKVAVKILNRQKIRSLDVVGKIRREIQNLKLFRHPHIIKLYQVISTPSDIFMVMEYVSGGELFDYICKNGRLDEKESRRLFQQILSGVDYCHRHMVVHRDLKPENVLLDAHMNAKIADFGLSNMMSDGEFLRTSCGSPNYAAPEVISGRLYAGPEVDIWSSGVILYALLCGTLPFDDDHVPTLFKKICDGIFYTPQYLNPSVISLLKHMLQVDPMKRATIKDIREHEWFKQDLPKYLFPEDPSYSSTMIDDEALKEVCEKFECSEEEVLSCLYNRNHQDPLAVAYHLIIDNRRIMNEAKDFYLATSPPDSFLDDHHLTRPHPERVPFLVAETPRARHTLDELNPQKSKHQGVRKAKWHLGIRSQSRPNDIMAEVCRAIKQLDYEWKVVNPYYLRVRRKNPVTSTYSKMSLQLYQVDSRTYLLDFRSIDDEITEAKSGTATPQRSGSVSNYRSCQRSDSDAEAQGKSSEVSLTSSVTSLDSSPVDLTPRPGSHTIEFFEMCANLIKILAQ
PLK3, sequence (Q9H4B4 whole entry): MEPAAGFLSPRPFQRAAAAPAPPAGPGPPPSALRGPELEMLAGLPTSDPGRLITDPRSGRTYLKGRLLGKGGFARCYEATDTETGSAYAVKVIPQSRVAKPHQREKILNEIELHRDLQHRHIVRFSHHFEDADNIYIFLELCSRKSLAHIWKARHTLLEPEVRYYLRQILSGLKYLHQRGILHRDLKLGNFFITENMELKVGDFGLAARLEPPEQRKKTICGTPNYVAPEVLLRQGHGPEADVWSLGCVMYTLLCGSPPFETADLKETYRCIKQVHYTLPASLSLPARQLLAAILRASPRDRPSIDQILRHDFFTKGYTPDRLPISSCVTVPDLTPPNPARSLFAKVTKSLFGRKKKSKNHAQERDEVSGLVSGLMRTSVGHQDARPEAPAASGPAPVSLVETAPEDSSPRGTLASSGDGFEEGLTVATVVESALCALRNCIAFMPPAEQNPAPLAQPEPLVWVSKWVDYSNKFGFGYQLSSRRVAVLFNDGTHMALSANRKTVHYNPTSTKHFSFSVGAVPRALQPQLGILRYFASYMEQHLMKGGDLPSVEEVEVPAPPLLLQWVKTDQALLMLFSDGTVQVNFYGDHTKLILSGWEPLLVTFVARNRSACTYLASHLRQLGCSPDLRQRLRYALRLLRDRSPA
T3 sequence (Q9UIK4 whole entry): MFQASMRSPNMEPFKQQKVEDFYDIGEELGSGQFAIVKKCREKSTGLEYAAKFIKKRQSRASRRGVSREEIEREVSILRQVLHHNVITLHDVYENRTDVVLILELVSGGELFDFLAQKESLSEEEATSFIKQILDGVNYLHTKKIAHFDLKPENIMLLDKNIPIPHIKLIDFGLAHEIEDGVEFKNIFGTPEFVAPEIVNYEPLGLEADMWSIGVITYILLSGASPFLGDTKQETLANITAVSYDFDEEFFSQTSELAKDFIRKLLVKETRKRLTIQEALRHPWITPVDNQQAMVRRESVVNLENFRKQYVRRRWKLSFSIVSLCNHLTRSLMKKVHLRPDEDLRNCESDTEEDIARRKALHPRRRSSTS
T14 sequence (O14733 whole entry): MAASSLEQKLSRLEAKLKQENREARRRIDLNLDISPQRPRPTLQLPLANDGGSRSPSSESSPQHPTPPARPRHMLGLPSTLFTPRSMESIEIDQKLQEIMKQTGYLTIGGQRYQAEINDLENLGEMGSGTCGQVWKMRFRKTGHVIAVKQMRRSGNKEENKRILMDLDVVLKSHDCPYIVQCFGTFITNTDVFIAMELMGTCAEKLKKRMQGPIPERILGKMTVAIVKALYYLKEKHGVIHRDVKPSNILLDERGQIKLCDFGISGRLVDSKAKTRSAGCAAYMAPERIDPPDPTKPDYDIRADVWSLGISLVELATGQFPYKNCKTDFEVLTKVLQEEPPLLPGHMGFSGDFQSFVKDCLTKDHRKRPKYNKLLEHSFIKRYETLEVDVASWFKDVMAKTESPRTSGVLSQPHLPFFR
T9 sequence (P51617 whole entry): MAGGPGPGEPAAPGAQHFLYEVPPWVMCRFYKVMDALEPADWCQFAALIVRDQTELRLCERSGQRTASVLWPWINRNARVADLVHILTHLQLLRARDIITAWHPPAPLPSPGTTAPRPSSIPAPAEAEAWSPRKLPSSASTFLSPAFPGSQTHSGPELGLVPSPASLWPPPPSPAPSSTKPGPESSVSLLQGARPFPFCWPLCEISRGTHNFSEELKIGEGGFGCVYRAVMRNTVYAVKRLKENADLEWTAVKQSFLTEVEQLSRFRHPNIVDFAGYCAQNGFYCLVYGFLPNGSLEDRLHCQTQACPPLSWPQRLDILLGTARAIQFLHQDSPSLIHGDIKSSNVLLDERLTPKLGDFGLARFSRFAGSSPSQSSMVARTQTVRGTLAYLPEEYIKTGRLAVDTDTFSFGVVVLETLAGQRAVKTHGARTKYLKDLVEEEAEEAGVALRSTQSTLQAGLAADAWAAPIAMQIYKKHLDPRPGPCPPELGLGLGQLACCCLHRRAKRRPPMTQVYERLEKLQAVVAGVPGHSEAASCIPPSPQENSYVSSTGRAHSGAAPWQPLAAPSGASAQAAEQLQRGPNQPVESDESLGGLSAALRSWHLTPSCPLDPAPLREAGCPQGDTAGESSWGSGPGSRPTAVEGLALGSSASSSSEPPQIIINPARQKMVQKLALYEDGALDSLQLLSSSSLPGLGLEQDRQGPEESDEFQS
CDK4-cyclinD3, sequence (P11802 whole entry): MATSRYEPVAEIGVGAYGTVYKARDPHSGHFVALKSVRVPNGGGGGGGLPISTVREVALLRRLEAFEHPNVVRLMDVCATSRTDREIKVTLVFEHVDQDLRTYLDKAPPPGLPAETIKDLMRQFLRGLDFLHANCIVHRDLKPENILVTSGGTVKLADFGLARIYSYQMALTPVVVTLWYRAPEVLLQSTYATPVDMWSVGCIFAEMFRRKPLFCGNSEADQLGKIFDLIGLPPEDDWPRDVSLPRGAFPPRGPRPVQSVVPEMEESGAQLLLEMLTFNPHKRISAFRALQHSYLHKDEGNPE
CDK4-cyclinD3, sequence (P30281 whole entry partner): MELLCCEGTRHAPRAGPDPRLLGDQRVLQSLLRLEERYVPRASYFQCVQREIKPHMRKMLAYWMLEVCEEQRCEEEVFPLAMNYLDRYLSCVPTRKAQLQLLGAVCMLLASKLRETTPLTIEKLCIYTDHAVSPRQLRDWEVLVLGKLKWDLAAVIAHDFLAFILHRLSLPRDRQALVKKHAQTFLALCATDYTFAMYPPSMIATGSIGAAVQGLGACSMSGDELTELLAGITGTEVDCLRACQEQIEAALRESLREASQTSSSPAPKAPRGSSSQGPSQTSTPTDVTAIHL
EPHB3, sequence (P54753 34-998): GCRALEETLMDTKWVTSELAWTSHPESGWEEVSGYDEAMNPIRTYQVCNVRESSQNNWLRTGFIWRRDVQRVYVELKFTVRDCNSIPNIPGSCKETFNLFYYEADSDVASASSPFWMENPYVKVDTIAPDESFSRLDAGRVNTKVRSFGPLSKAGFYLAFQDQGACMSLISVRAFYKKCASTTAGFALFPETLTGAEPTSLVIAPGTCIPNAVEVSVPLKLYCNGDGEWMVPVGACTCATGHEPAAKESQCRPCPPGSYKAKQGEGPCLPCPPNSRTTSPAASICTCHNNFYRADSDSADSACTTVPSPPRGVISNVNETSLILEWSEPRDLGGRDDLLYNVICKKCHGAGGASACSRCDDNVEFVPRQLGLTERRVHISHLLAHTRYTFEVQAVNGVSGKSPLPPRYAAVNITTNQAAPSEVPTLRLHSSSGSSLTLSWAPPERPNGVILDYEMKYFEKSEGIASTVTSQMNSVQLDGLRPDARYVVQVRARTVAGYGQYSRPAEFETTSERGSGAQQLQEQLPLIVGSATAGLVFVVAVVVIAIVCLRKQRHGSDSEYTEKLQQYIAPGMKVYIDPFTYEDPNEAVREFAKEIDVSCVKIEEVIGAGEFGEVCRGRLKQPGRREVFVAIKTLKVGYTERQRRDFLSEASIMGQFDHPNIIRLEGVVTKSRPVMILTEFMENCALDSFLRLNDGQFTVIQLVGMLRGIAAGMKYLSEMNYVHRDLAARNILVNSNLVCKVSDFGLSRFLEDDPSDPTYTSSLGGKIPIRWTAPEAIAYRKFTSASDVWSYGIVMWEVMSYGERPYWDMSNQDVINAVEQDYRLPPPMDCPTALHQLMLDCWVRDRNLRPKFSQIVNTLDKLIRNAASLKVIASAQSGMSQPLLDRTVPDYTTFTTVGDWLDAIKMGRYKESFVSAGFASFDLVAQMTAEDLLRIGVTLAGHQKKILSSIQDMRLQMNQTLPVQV

IC50 [1]: < 10 nM
SMILES: CSc1nc(-c2cccc(NC(=O)c3cccc4c3NC(=O)c3ccccc3N4)c2)c(-c2ccnc(NC(C)=O)c2)[nH]1 [Compound 2]

SMILES: C=CC(=O)Nc1ccc(OC)c(Nc2cc(-c3[nH]c(CC)nc3-c3cccc(NC(=O)c4cccc5c4NC(=O)c4ccccc4N5)c3)ccn2)c1 [Compound 4]
POC [2]: 89% of control
POC [3]: 81% of control
POC [4]: 100% of control
POC [5]: 100% of control
POC [6]: 49% of control
POC [7]: 100% of control
POC [8]: 54% of control
POC [9]: 100% of control
POC [10]: 100% of control
POC [11]: 5% of control
POC [12]: 81% of control
POC [13]: 100% of control
POC [14]: 100% of control
POC [15]: 100% of control
POC [16]: 74% of control
POC [17]: 19% of control
POC [18]: 100% of control
POC [19]: 87% of control
POC [20]: 99% of control
POC [21]: 90% of control
POC [22]: 97% of control
POC [23]: 85% of control
POC [24]: 87% of control
POC [25]: 93% of control
POC [26]: 100% of control
POC [27]: 2.5% of control
POC [28]: 31% of control
POC [29]: 100% of control
POC [30]: 97% of control
POC [31]: 14% of control
POC [32]: 100% of control
POC [33]: 70% of control
POC [34]: 90% of control
POC [35]: 87% of control
POC [36]: 55% of control
POC [37]: 100% of control
POC [38]: 100% of control
POC [39]: 80% of control
POC [40]: 100% of control
POC [41]: 62% of control
POC [42]: 87% of control
